For one experiment, the target named is T1, Notch1 (Homo sapiens, UniProt P46531).
T1 construct: pLV[Tet]-Puro-TRE3G>Notch1-ICD; expressed in transfected cells; host or cells: 293A cells
Put plainly: Notch1 Reporter Assay (CSL-responsive luciferase, doxycycline-induced Notch-ICD in 293A cells). The conditions noted are these: 25 ng/mL Dox, 24 h, luciferase normalized to cell viability. The class given is cell-based. On the procedure: 293A cells expressing 1) pCMV-Tet-On 3G, 2) pLV[Tet]-Puro-TRE3G>Notch1-ICD, 3) pLV[Tet]-Puro-TRE3G>Notch2-ICD, 4) pLV[Tet]-Puro-TRE3G>Notch3-ICD, and 5) pCSL-RElement-Luc were used. When Doxycycline is added, the Tet-ON gene activates expression of hNotch1ICD, which together with endogenous NTC components binds to CSL responsive elements (pCSL-RElement-Luc) and expresses luciferase. 1×10^4 cells are plated in 100 μL (96-well format). 24 h later, compounds (10 mM stock in DMSO) are diluted in DMSO to 200×, then added (5 ul into 1 mL) to cell culture media containing 50 ng/mL Dox. This is then added 1:1 to cells. Final DMSO=0.25%, Dox=25 ng/mL. After 24 h, media is discarded, and cells are lysed in passive lysis buffer (Promega). Cells are rocked at room temperature for 15 min and then lysate is divided for luciferase assay (Luciferase Assay System, Promega) and cell viability (CellTiter Glo 2.0, Promega). Raw luciferase is normalized to cell viability, and then scaled to DMSO wells. Results are analyzed and IC50's are determined in GraphPad by nonlinear regression curve fitting (4 parameter) of dose response curves.

The test system of experiment [1] is OE33 Esophageal Adenocarcinoma cell line. Nature of the experiment: OE33 Colony Formation Assay. To be noted: Homo sapiens, 200 cells/well, compound every 48 hours for 7 days, CellTiter-Glo. The class given is cell-based. Here is the method:
OE33 Colony Formation Assay:
The OE33 Esophageal Adenocarcinoma cell line was cultured and plated into 96-well tissue culture plates under sparse conditions (200 cells/well). Test compounds were serially diluted in DMSO and then into culture media (final DMSO concentration=0.1%). Compound/media was then added to cells every 48 hours for a total of 7 days. Clonogenic growth was assessed using the CellTiter-Glo reagent, according to manufacturer (Promega) specifications. Percent inhibition was calculated as the percent of luminescence normalized to control (0.1% DMSO) wells. Nonlinear regression curve fitting was performed using GraphPad Prism software to determine EC50's.

Each structure is given as a SMILES string. Where a name gives a salt, the structure may show the parent alone.

In patent US20230183215A1, “Notch Inhibitors and Uses Thereof” (StemSynergy Therapeutics, Inc., priority 2020, published 2023) one finds IC50 and EC50 data, which are given here for 17 compounds.

T1 sequence (P46531 1754-2555 limits assumed): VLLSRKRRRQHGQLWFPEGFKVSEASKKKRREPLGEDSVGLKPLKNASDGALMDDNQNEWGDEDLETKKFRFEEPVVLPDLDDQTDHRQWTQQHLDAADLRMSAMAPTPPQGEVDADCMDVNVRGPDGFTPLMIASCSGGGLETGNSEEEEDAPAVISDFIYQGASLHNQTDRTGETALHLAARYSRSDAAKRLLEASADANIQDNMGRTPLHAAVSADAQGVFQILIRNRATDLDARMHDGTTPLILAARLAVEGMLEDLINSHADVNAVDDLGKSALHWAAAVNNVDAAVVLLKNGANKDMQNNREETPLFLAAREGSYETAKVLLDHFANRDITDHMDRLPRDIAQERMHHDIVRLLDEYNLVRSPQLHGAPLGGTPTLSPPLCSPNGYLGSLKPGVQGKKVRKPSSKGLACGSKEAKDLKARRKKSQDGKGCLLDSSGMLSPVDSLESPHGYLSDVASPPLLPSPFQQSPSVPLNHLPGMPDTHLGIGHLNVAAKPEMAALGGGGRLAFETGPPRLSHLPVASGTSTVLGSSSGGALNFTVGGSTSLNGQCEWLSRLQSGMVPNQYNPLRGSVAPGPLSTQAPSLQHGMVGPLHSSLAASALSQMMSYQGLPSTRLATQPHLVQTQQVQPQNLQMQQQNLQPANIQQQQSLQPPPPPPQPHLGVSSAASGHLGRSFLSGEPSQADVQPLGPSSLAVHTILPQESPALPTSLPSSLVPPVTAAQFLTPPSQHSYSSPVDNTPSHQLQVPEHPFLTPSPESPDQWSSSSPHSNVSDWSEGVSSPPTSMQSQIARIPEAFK

`COc1cc(-c2cc(C(F)(F)F)cc3c2n(C)c(=O)n3CC(=O)N(C)c2ccc(Cl)cc2)cc(F)c1OCc1nnc[nH]1` [compound 424, 2-(4-(4-((4H-1,2,4-triazol-3-yl)methoxy)-3-fluoro-5-methoxyphenyl)-3-methyl-2-oxo-6-(trifluoromethyl)-2,3-dihydro-1H-benzo[d]imidazol-1-yl)-N-(4-chlorophenyl)-N-methylacetamide hydrochloride] displayed an IC50 against Notch1 of 3.6 µM. In experiment [1], this compound had an EC50 of 1.4 µM.

`COCc1cccc(NC(=O)Cn2c(=O)n(C)c3c(-c4cc(F)c(OCc5nnc[nH]5)c(OC)c4)cc(C(F)(F)F)cc32)c1` [SSTN-548, 2-(4-(4-((4H-1,2,4-triazol-3-yl)methoxy)-3-fluoro-5-methoxyphenyl)-3-methyl-2-oxo-6-(trifluoromethyl)-2,3-dihydro-1H-benzo[d]imidazol-1-yl)-N-(3-(methoxymethyl)phenyl)acetamide] yielded an IC50 on Notch1 of 8.7 µM. Further, in experiment [1], the EC50 was found to be 2.3 µM.

Regarding `COc1cc(-c2cc(C(F)(F)F)cc3c2n(C)c(=O)n3CC(=O)Nc2cccc(N3CCN(C)CC3)c2)cc(F)c1OCc1nnc[nH]1` [SSTN-559, 2-(4-(4-((4H-1,2,4-triazol-3-yl)methoxy)-3-fluoro-5-methoxyphenyl)-3-methyl-2-oxo-6-(trifluoromethyl)-2,3-dihydro-1H-benzo[d]imidazol-1-yl)-N-(3-(4-methylpiperazin-1-yl)phenyl)acetamide], the half-inhibitory concentration (IC50) on Notch1 came to 19.9 µM. In experiment [1], this compound yielded a concentration for a half-maximal effect (EC50) of 4.3 µM.

On Notch1, `COc1cc(-c2cc(C(F)(F)F)cc3c2n(C)c(=O)n3CC(=O)Nc2cccc(N3CCOCC3)c2)cc(F)c1OCc1nnc[nH]1` [SSTN-558, 2-(4-(4-((4H-1,2,4-triazol-3-yl)methoxy)-3-fluoro-5-methoxyphenyl)-3-methyl-2-oxo-6-(trifluoromethyl)-2,3-dihydro-1H-benzo[d]imidazol-1-yl)-N-(3-morpholinophenyl)acetamide] yielded an IC50 of 9.4 µM. Also, in experiment [1], the response was half-maximal at 4.7 µM (EC50).

Take `COc1cc(-c2cc(C(F)(F)F)cc3c2n(C2CC2)c(=O)n3CC(=O)N(C)c2ccc(F)cc2)cc(F)c1OCc1nnc[nH]1` [compound 464, 2-(4-(4-((4H-1,2,4-triazol-3-yl)methoxy)-3-fluoro-5-methoxyphenyl)-3-cyclopropyl-2-oxo-6-(trifluoromethyl)-2,3-dihydro-1H-benzo[d]imidazol-1-yl)-N-(4-fluorophenyl)-N-methylacetamide hydrochloride]: at Notch1, the IC50 came to 1.7 µM. For the same compound, a half-maximal effect in experiment [1] (EC50) was put at 1.3 µM.

On to `COc1cc(-c2cc(C(F)(F)F)cc3c2n(C)c(=O)n3CC(=O)Nc2ccccc2Cl)cc(F)c1OCc1nnc[nH]1` [SSTN-491, 2-(4-(4-((4H-1,2,4-triazol-3-yl)methoxy)-3-fluoro-5-methoxyphenyl)-3-methyl-2-oxo-6-(trifluoromethyl)-2,3-dihydro-1H-benzo[d]imidazol-1-yl)-N-(2-chlorophenyl)acetamide hydrochloride], for which the IC50 against Notch1 was 11.1 µM. In addition, the midpoint of the response in experiment [1], the EC50, lay at 4.6 µM.

`COc1cc(-c2cc(C(F)(F)F)cc3c2n(C)c(=O)n3CC(=O)Nc2cccc(F)c2)cc(F)c1OCc1nnc[nH]1` [SSTN-496, 2-(4-(4-((4H-1,2,4-triazol-3-yl)methoxy)-3-fluoro-5-methoxyphenyl)-3-methyl-2-oxo-6-(trifluoromethyl)-2,3-dihydro-1H-benzo[d]imidazol-1-yl)-N-(3-fluorophenyl)acetamide hydrochloride] came in with an IC50 against Notch1 of 6 µM. Also, the EC50 in experiment [1] was 3.7 µM.

Turning to `COc1cc(-c2cc(C(F)(F)F)cc3c2n(C)c(=O)n3CC(=O)N(C)c2ccc(C(F)(F)F)cc2)cc(F)c1OCc1nnc[nH]1` [compound 439, 2-(4-(4-((4H-1,2,4-triazol-3-yl)methoxy)-3-fluoro-5-methoxyphenyl)-3-methyl-2-oxo-6-(trifluoromethyl)-2,3-dihydro-1H-benzo[d]imidazol-1-yl)-N-methyl-N-(4-(trifluoromethyl)phenyl)acetamide hydrochloride], inhibition on Notch1 was half-maximal at 3.5 µM (IC50). A half-maximal effect in experiment [1] (EC50) was put at 1.2 µM.

Compound `COc1cccc(NC(=O)Cn2c(=O)n(C)c3c(-c4cc(F)c(OCc5nnc[nH]5)c(OC)c4)cc(C(F)(F)F)cc32)c1` [SSTN-492, 2-(4-(4-((4H-1,2,4-triazol-3-yl)methoxy)-3-fluoro-5-methoxyphenyl)-3-methyl-2-oxo-6-(trifluoromethyl)-2,3-dihydro-1H-benzo[d]imidazol-1-yl)-N-(3-methoxyphenyl)acetamide hydrochloride] showed an IC50 against Notch1 of 6.3 µM. Besides, the EC50 in experiment [1] was found to be 6.6 µM.

Take `COc1cc(-c2cc(C(F)(F)F)cc3c2n(C)c(=O)n3CC(=O)N(c2ccc(F)cc2)C2CC2)cc(F)c1OCc1nnc[nH]1` [SSTN-543, 2-(4-(4-((4H-1,2,4-triazol-3-yl)methoxy)-3-fluoro-5-methoxyphenyl)-3-methyl-2-oxo-6-(trifluoromethyl)-2,3-dihydro-1H-benzo[d]imidazol-1-yl)-N-cyclopropyl-N-(4-fluorophenyl)acetamide]: the midpoint of inhibition against Notch1, the IC50, lay at 4.7 µM. Also, a half-maximal response in experiment [1] (EC50) required 2.9 µM.

`COc1cc(-c2cc(C(F)(F)F)cc3c2n(C)c(=O)n3CC(=O)Nc2ccc(OC(F)F)cc2)cc(F)c1OCc1nnc[nH]1` [SSTN-497, 2-(4-(4-((4H-1,2,4-triazol-3-yl)methoxy)-3-fluoro-5-methoxyphenyl)-3-methyl-2-oxo-6-(trifluoromethyl)-2,3-dihydro-1H-benzo[d]imidazol-1-yl)-N-(4-(difluoromethoxy)phenyl)acetamide hydrochloride]: the IC50 against Notch1 was found to be 6.9 µM. The same compound had an EC50 in experiment [1] of 2.9 µM.

Take `COC(=O)c1cc(OCc2nnc[nH]2)c(OC)cc1-c1cc(C(F)(F)F)cc2c1n(C)c(=O)n2CC(=O)Nc1ccc(F)cc1` [SSTN-604, Methyl 5-((4H-1,2,4-triazol-3-yl)methoxy)-2-(1-(2-((4-fluorophenyl)amino)-2-oxoethyl)-3-methyl-2-oxo-6-(trifluoromethyl)-2,3-dihydro-1H-benzo[d]imidazol-4-yl)-4-methoxybenzoate hydrochloride salt]: the half-inhibitory concentration (IC50) on Notch1 was 10.4 µM. This compound showed an EC50 in experiment [1] of 18.9 µM.

`COc1cc(-c2cc(C(F)(F)F)cc3c2n(C)c(=O)n3CC(=O)Nc2cccc(Cl)c2)cc(F)c1OCc1nnc[nH]1` [SSTN-490, 2-(4-(4-((4H-1,2,4-triazol-3-yl)methoxy)-3-fluoro-5-methoxyphenyl)-3-methyl-2-oxo-6-(trifluoromethyl)-2,3-dihydro-1H-benzo[d]imidazol-1-yl)-N-(3-chlorophenyl)acetamide hydrochloride] returned an IC50 at Notch1 of 5.5 µM. The compound also had an EC50 in experiment [1] of 1.7 µM.

`COc1cc(-c2cc(C(F)(F)F)cc3c2n(C)c(=O)n3CC(=O)Nc2cccc(C(F)(F)F)c2)cc(F)c1OCc1nnc[nH]1` [SSTN-495, 2-(4-(4-((4H-1,2,4-triazol-3-yl)methoxy)-3-fluoro-5-methoxyphenyl)-3-methyl-2-oxo-6-(trifluoromethyl)-2,3-dihydro-1H-benzo[d]imidazol-1-yl)-N-(3-(trifluoromethyl)phenyl)acetamide hydrochloride]: the IC50 against Notch1 is 4.3 µM. In experiment [1], the response was half-maximal at 1.5 µM (EC50).

Turning to `COc1cc(-c2cc(C(F)(F)F)cc3c2n(C)c(=O)n3CC(=O)N(C)c2ccc(F)cc2F)cc(F)c1OCc1nnc[nH]1` [compound 447, 2-(4-(4-((4H-1,2,4-triazol-3-yl)methoxy)-3-fluoro-5-methoxyphenyl)-3-methyl-2-oxo-6-(trifluoromethyl)-2,3-dihydro-1H-benzo[d]imidazol-1-yl)-N-(2,4-difluorophenyl)-N-methylacetamide hydrochloride], half-maximal inhibition on Notch1 (IC50) was put at 3.3 µM. For the same compound, a half-maximal response in experiment [1] (EC50) required 2.8 µM.

On Notch1, `COc1cc(-c2cc(C(F)(F)F)cc3c2n(C)c(=O)n3CC(=O)Nc2cccnc2F)cc(F)c1OCc1nnc[nH]1` [SSTN-612, 2-(4-(4-((4H-1,2,4-triazol-3-yl)methoxy)-3-fluoro-5-methoxyphenyl)-3-methyl-2-oxo-6-(trifluoromethyl)-2,3-dihydro-1H-benzo[d]imidazol-1-yl)-N-(2-fluoropyridin-3-yl)acetamide] registered an IC50 of 13.2 µM. For the same compound, the EC50 in experiment [1] was determined as 17.1 µM.

For the compound `COc1cc(-c2cc(C(F)(F)F)cc3c2n(C)c(=O)n3CC(=O)Nc2ccc(F)cc2)c(F)cc1OCc1nnc[nH]1` [SSTN-603, 2-(4-(4-((4H-1,2,4-triazol-3-yl)methoxy)-2-fluoro-5-methoxyphenyl)-3-methyl-2-oxo-6-(trifluoromethyl)-2,3-dihydro-1H-benzo[d]imidazol-1-yl)-N-(4-fluorophenyl)acetamide], the concentration for half-maximal inhibition (IC50) against Notch1 worked out at 7.4 µM. The same compound had an EC50 in experiment [1] of 3.8 µM.

A word on the IC50: it is the concentration that inhibits the measured activity by half. Low readings indicate greater potency in that assay, high ones weaker potency in that assay. The EC50 is the concentration needed to bring the measured effect to its halfway point.
